SMILES strings stand for the structures.

IC50 data for 14 molecules are collected here from ChEMBL document CHEMBL4229547, “Design, synthesis and biological mechanisms research on 1,2,3-triazole derivatives of Jiyuan Oridonin A” (Bioorg Med Chem, 2018).

Assay type in all cases: functional, cell-based
For one assay, the system named is ECa-109 cell line. In words: Antiproliferative activity against human ECA109 cells after 48 hrs by MTT assay. As to conditions: ECa-109, 48 h. In general terms: Formazan colour is commonly taken as a measure of viable cells.
Another assay has as its system EC9706. In words: Antiproliferative activity against human EC9706 cells after 48 hrs by MTT assay. As to conditions: EC9706, 48 h.
The test system of a further assay is SMMC-7721. The assay is described as follows: Antiproliferative activity against human SMMC7721 cells after 48 hrs by MTT assay. As to conditions: SMMC-7721, 48 h.
The subject of the next assay is PC-3. In words: Antiproliferative activity against human PC3 cells after 48 hrs by MTT assay. As to conditions: PC-3, 48 h.
Another assay relates to MCF7. The assay is described as follows: Antiproliferative activity against human MCF7 cells after 48 hrs by MTT assay. As to conditions: MCF7, 48 h.
A further assay has as its system MGC-803. In words: Antiproliferative activity against human MGC803 cells after 48 hrs by MTT assay. As to conditions: MGC-803, 48 h.
The subject of another assay is HGC-27. The assay is described as follows: Antiproliferative activity against human HGC27 cells after 48 hrs by MTT assay. As to conditions: HGC-27, 48 h.

In general, IC50 refers to the concentration needed to halve the response being measured. For `C=C1C(=O)[C@]23[C@H](O)[C@H]1C[C@H](O)[C@H]2[C@]12CCCC(C)(C)[C@H]1C[C@H]3O[C@@H]2OCCc1cn(Cc2ccc(C)cc2)nn1`, the IC50 in the assay on ECa-109 cell line is 2.12 µM; with EC9706, 6.1 µM; in the assay on SMMC-7721 it was 5.68 µM; in the assay with PC-3, 4.9 µM; in the assay with MCF7, 7.86 µM; in the assay on MGC-803, 3.89 µM.
For `C=C1C(=O)[C@]23[C@H](O)[C@H]1C[C@H](O)[C@H]2[C@]12CCCC(C)(C)[C@H]1C[C@H]3O[C@@H]2OCCc1cn(Cc2ccc(OC)cc2)nn1`, the IC50 in the assay with ECa-109 cell line was found to be 2.57 µM; in the assay with EC9706 it was 4.67 µM; in the assay with SMMC-7721, 4.81 µM; in the assay on PC-3, 4.95 µM; in the assay with MCF7, 7.81 µM; in the assay on MGC-803 it was 4.79 µM.
In the case of `C=C1C(=O)[C@]23[C@H](O)[C@H]1C[C@H](O)[C@H]2[C@]12CCCC(C)(C)[C@H]1C[C@H]3O[C@@H]2OCCn1cc(CCCC)nn1`, the IC50 in the assay on ECa-109 cell line came out at 4.45 µM; with EC9706 it was 8.29 µM; in the assay on SMMC-7721 it was 11 µM; in the assay on MCF7, 13.4 µM.
Turning to `C=C1C(=O)[C@]23[C@H](O)[C@H]1C[C@H](O)[C@H]2[C@]12CCCC(C)(C)[C@H]1C[C@H]3O[C@@H]2OCCc1cn(Cc2cc(OC)c(OC)c(OC)c2)nn1`, the IC50 turned out to be 4.51 µM in the assay on ECa-109 cell line, 9.5 µM in the assay on EC9706, 9.03 µM with SMMC-7721 and 8.79 µM in the assay with MCF7.
Consider `C=C1C(=O)[C@]23[C@H](O)[C@H]1CC[C@H]2[C@@]12CO[C@]3(O)[C@@H](O)[C@@H]1C(C)(C)CC[C@@H]2O` [ORIDONIN], for which the IC50 was determined as 31.8 µM in the assay on ECa-109 cell line; 38.4 µM with EC9706; 54 µM in the assay on SMMC-7721; 32 µM in the assay with HGC-27; 27.6 µM with PC-3; 74.2 µM in the assay on MCF7. The molecule further showed a half-maximal inhibitory concentration (IC50) with MGC-803 of 33.1 µM.
Take `C=C1C(=O)[C@]23[C@H](O)[C@H]1C[C@H](O)[C@H]2[C@]12CCCC(C)(C)[C@H]1C[C@H]3O[C@@H]2OCCn1cc(C2CC2)nn1`: the IC50 is 4.3 µM with ECa-109 cell line; 11.4 µM with EC9706; 9.66 µM in the assay on SMMC-7721; 3.79 µM in the assay on PC-3; 11 µM with MCF7; 4.58 µM in the assay with MGC-803.
`C=C1C(=O)[C@]23[C@H](O)[C@H]1C[C@H](O)[C@H]2[C@]12CCCC(C)(C)[C@H]1C[C@H]3O[C@@H]2OCCc1cn(Cc2ccccc2)nn1`: the IC50 in the assay with ECa-109 cell line is 3.51 µM; with EC9706, 7.54 µM; in the assay with SMMC-7721, 5.79 µM; in the assay on MCF7, 9.45 µM.
`C=C1C(=O)[C@]23[C@H](O)[C@H]1C[C@H](O)[C@H]2[C@]12CCCC(C)(C)[C@H]1C[C@H]3O[C@H]2O`: the half-inhibitory concentration (IC50) in the assay on ECa-109 cell line worked out at 20.7 µM; with EC9706, 22.5 µM; with SMMC-7721, 20.2 µM; in the assay with PC-3 it was 15 µM; in the assay on MCF7 it was 22.9 µM; in the assay with MGC-803 it was 14.7 µM.
For `C#CCO[C@H]1O[C@@H]2C[C@@H]3C(C)(C)CCC[C@]13[C@@H]1[C@@H](O)C[C@H]3C(=C)C(=O)[C@@]21[C@@H]3O`, the 50% inhibitory concentration (IC50) in the assay on ECa-109 cell line came to 10.8 µM; with EC9706 it was 7.87 µM; in the assay with SMMC-7721, 15.3 µM; with PC-3, 3.92 µM; with MCF7, 14.6 µM; with MGC-803 it was 3.77 µM.
For the molecule `C=C1C(=O)[C@]23[C@H](O)[C@H]1C[C@H](O)[C@H]2[C@]12CCCC(C)(C)[C@H]1C[C@H]3OC2OCCN=[N+]=[N-]` (single isomer, unassigned), the IC50 was determined as 6.08 µM in the assay on ECa-109 cell line; 8.71 µM with EC9706; 10 µM in the assay with SMMC-7721; 12.3 µM in the assay with PC-3; 1.6 µM in the assay with MCF7; 11.9 µM in the assay with MGC-803.
As to `C=C1C(=O)[C@]23[C@H](O)[C@H]1C[C@H](O)[C@H]2[C@]12CCCC(C)(C)[C@H]1C[C@H]3O[C@@H]2OCCc1cn(Cc2ccc(F)cc2)nn1`, the IC50 with ECa-109 cell line was found to be 3.68 µM; with EC9706, 4.5 µM; with SMMC-7721, 5.88 µM; in the assay with MCF7, 6.62 µM.
For `C=C1C(=O)[C@]23[C@H](O)[C@H]1C[C@H](O)[C@H]2[C@]12CCCC(C)(C)[C@H]1C[C@H]3O[C@@H]2OCCc1cn(Cc2ccc(Cl)c(Cl)c2)nn1`, in that order: 2.58 µM, 4.21 µM, 3.76 µM and 6.85 µM.
In the case of `C=C1C(=O)[C@]23[C@H](O)[C@H]1C[C@H](O)[C@H]2[C@]12CCCC(C)(C)[C@H]1C[C@H]3O[C@@H]2OCCn1cc(-c2ccccc2)nn1`, the IC50 in the assay on ECa-109 cell line was 4.26 µM; in the assay on EC9706, 5.32 µM; with SMMC-7721, 6.07 µM; in the assay on PC-3 it was 11.2 µM; with MCF7, 8.95 µM; in the assay on MGC-803, 9.62 µM.
Take `C=C1C(=O)[C@]23[C@H](O)[C@H]1C[C@H](O)[C@H]2[C@]12CCCC(C)(C)[C@H]1C[C@H]3O[C@@H]2OCCc1cn(Cc2ccc([N+](=O)[O-])cc2)nn1`: the IC50 with ECa-109 cell line was determined as 4.13 µM; in the assay with EC9706 it was 7.78 µM; in the assay with SMMC-7721, 3.8 µM; in the assay on MCF7, 6.45 µM.
